PMC7558535, “In Vitro Metabolism of DWP16001, a Novel Sodium-Glucose Cotransporter 2 Inhibitor, in Human and Animal Hepatocytes” (Pharmaceutics, 2020)
Like-named read-outs stand apart in the source and are kept apart here. Values belong to the molecule of their own block, whether it stands above or below them.

Assays:
[1] = tested on: 11 human CYP enzymes; assay: CYP screening, whole panel; assay type: in vitro ADME
Procedure: DWP16001, M1, or M2 was incubated with 11 human cDNA-expressed CYP enzymes (1A1, 1A2, 2A6, 2B6, 2C8, 2C9, 2C19, 2D6, 2E1, 3A4, and 3A5) to identify the CYP enzymes involved in the metabolism of DWP16001. Reaction mixtures of 95 µL containing DWP16001 (final concentration: 5 µM), M1 or M2 (final concentration: 10 µM), and CYPs (final amount: 10 pmol) were prepared in 0.1 M potassium phosphate buffer (pH 7.4). The reaction was started by adding 5 µL of NADPH-generating system; the mixtures were incubated for 30 min at 37 °C in triplicate. Reactions were stopped by the addition of 400 µL of ice-cold ketoconazole (internal standard, 200 ng/mL) in ice-cold acetonitrile. Samples were centrifuged at 15,000× g for 8 min at 4 °C. Seventy-five microliter aliquots of the supernatants were diluted with 75 µL of deionized water and analyzed using an LC–MS/MS system.

[2] = tested on: 13 human UGT enzymes; assay: UGT screening, whole panel; assay type: in vitro ADME; settings: incubation of M1 with 13 human UGT enzymes and UDPGA
Procedure: To screen for UGT enzymes responsible for glucuronidation of DWP16001, 100 μL of reaction mixtures containing 13 human cDNA-expressed UGT enzymes (1A1, 1A3, 1A4, 1A6, 1A7, 1A8, 1A9, 1A10, 2B4, 2B7, 2B10, 2B15, and 2B17) at 0.1 mg protein/mL, 5 mM UDPGA, 0.025 mg/mL alamethicin, and 25 μM DWP16001 or M1 in 50 mM Tris buffer (pH 7.4) were incubated at 37 °C for 30 min in triplicate. Reactions were stopped by adding 100 μL of ketoconazole (internal standard, 200 ng/mL) in acetonitrile, followed by vortex-mixing and centrifugation (15,000× g, 8 min, 4 °C). The supernatant (75 μL) was diluted with equal volume of 30% acetonitrile and aliquots (5 μL) were injected into an LC-MS/MS system.

[3] = cited from earlier work
[4] = human; cited from earlier work
[5] = human, cited from earlier work
[6] = tested on: human hepatocytes; settings: cited from earlier work
[7] = tested on: SGLT2; set-up: method as in PMID 32183468; settings: read-out: IC50 (SGLT2 inhibition); cited from earlier work

- Formation of M4 from M1 ([1]; incubation of M1 with 11 human CYP enzymes and NADPH): not detected
- Formation of M1 glucuronides U4 and U5 from M1 [2]: not formed
Compound: OC[C@H]1O[C@@H](c2cc(Cc3ccc(C4CC4)cc3)c(Cl)c3c2CC(O)O3)[C@H](O)[C@@H](O)[C@@H]1O (stereo partly drawn) [M1, (2S,3R,4R,5S,6R)-2-(7-chloro-6-(4-cyclopropylbenzyl)-2-hydroxy-2,3-dihydrobenzofuran-4-yl)-6-(hydroxymethyl)tetrahydro-2H-pyran-3,4,5-triol]

- Formation of M5 from M2 ([1]; incubation of M2 with 11 human CYP enzymes and NADPH): not detected
Compound: OC[C@H]1O[C@@H](c2cc(Cc3ccc(C4(O)CC4)cc3)c(Cl)c3c2CCO3)[C@H](O)[C@@H](O)[C@@H]1O [M2, (2S,3R,4R,5S,6R)-2-(7-chloro-6-(4-(1-hydroxycyclopropyl)benzyl)-2,3-dihydrobenzofuran-4-yl)-6-(hydroxymethyl)tetrahydro-2H-pyran-3,4,5-triol]

Compound: Cc1ccc([C@@H]2O[C@H](CO)[C@@H](O)[C@H](O)[C@H]2O)cc1Cc1ccc(-c2ccc(F)cc2)s1 [canagliflozin]
- Drug interaction on co-administration ([3]; glyburide, metformin, and simvastatin): did not cause significant drug interactions
- Increase of AUC ([3]; human, cyclosporine A 400 mg): 23%
- Increase of AUC ([3]; human, probenecid 500 mg twice per day for 3 days): 20.7%
- Decrease of AUC ([3]; human, repeated rifampin 600 mg/day for 8 days): 48.7%

Compound: CCOc1ccc(Cc2cc([C@@H]3O[C@H](CO)[C@@H](O)[C@H](O)[C@H]3O)ccc2Cl)cc1 [dapagliflozin]
- Share of oxidative metabolism (CYP2D6, CYP3A4, CYP2C9 etc.) in metabolism [4]: less than 10%
- Increase of AUC ([5]; pretreatment with mefenamic acid 250 mg every 6 h for 5 days): 50%
- Decrease of AUC ([5]; repeated rifampin 600 mg/day for 6 days): 22%
- Hepatic extraction [6]: low

Compound: OC[C@H]1O[C@@H](c2ccc(F)c(Cc3cc4ccccc4s3)c2)[C@H](O)[C@@H](O)[C@@H]1O [ipragliflozin]
- IC50 [7]: 8.9 ± 1.7 nM
